Assay results reported in ChEMBL document CHEMBL4385605, “Synthesis and Structure-Affinity Relationships of Spirocyclic Benzopyrans with Exocyclic Amino Moiety” (J Med Chem, 2019).
Calls of active or inactive are those of the source. The calls are words filed in the database; no cut-off is given here.

What was measured:
[1] = molecular target: Sigma non-opioid intracellular receptor 1 (Cavia porcellus, UniProt Q60492); assay: Displacement of [3H](+)-pentazocine from sigma 1 receptor in guinea pig brain cortex membranes after 120 mins by scintillation counting analysis; assay type: cell membranes
Chain of Sigma non-opioid intracellular receptor 1 (Q60492 whole entry): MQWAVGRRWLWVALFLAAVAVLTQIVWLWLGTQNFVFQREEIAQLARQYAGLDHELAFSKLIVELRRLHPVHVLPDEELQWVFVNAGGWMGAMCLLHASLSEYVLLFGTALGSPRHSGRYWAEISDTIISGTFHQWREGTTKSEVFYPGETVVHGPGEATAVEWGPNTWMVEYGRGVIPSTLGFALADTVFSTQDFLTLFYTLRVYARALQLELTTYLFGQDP

[2] = molecular target: T1, Sigma intracellular receptor 2 (Rattus norvegicus, UniProt Q5U3Y7); assay: Displacement of [3H]-di-o-tolylguanidine from sigma2 receptor in rat liver membranes incubated for 120 mins in the presence of sigma1 receptor ligand (+)-pentazocine by scintillation counting method; assay type: cell membranes
T1 sequence (Q5U3Y7 whole entry): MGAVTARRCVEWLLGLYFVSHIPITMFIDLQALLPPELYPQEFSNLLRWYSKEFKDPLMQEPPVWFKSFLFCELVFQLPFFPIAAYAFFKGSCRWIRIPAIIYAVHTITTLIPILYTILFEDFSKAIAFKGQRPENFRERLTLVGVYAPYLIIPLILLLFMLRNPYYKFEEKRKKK

[3] = Selectivity ratio of Ki for displacement of [3H]DTG from sigma2 receptor in rat liver membranes to Ki for displacement of (+)-[3H]pentazocine from sigma 1 receptor in guinea pig brain cortex membranes; assay type: cell membranes
[4] = molecular target: Delta-type opioid receptor (Rattus norvegicus, UniProt P33533); assay: Displacement of [3H]DPDPE from delta opioid receptor in rat membranes after 120 mins by scintillation counting analysis; assay type: cell membranes
Chain of Delta-type opioid receptor (P33533 whole entry): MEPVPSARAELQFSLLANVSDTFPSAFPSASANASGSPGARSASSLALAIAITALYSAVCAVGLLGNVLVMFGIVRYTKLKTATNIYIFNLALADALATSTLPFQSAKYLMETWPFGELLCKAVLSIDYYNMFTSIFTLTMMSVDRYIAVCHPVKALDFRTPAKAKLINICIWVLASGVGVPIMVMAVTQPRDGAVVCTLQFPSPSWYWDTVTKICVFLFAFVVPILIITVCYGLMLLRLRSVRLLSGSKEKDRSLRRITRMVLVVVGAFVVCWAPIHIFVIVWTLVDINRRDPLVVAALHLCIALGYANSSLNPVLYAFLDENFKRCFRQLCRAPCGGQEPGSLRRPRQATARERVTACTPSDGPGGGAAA

[5] = molecular target: Sigma intracellular receptor 2 (Homo sapiens, UniProt Q5BJF2); assay: Displacement of [3H]-di-o-tolylguanidine from sigma2 receptor in human RT4 cell membranes incubated for 120 mins in the presence of sigma1 receptor ligand (+)-pentazocine by scintillation counting method
Chain of Sigma intracellular receptor 2 (Homo sapiens, UniProt Q5BJF2) (Q5BJF2 whole entry): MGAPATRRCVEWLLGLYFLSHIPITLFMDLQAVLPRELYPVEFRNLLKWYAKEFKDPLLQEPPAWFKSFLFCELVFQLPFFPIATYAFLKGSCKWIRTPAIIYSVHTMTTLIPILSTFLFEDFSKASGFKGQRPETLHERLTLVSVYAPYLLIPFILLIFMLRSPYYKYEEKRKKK

[6] = molecular target: Mu-type opioid receptor (Cavia porcellus) (UniProt P97266); assay: Displacement of [3H]DAMGO from mu opioid receptor in guinea pig brain membranes at 1 uM after 120 mins by scintillation counting analysis relative to control; assay type: cell membranes
Chain of Mu-type opioid receptor (Cavia porcellus) (P97266 whole entry): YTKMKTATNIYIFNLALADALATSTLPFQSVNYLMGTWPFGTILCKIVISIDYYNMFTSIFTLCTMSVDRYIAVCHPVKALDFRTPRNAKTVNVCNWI

[7] = molecular target: Kappa-type opioid receptor (Cavia porcellus) (UniProt P41144); assay: Displacement of [3H]U69,593 from kappa opioid receptor in guinea pig brain membrane at 1 uM after 120 mins by scintillation counting analysis relative to control; assay type: cell membranes
Chain of Kappa-type opioid receptor (Cavia porcellus) (P41144 whole entry): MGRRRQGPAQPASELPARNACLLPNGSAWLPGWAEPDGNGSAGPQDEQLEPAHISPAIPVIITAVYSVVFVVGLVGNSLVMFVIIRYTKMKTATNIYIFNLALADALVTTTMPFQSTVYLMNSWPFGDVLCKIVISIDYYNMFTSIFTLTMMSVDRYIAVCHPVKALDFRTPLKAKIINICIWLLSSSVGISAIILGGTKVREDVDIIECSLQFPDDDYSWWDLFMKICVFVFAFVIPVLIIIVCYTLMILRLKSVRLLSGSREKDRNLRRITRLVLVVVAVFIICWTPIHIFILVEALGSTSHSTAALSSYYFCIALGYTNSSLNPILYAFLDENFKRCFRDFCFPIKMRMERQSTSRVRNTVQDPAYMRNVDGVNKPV

[8] = molecular target: Delta-type opioid receptor (Rattus norvegicus) (UniProt P33533); assay: Displacement of [3H]DPDPE from delta opioid receptor in rat membrane at 1 uM after 120 mins by scintillation counting analysis relative to control; assay type: cell membranes
Chain of Delta-type opioid receptor (Rattus norvegicus) (P33533 whole entry): as the sequence (P33533 whole entry) above

Mu-type opioid receptor = Mu-type opioid receptor (Cavia porcellus, UniProt P97266); assay: Displacement of [3H]DAMGO from mu opioid receptor in guinea pig brain membranes after 120 mins by scintillation counting analysis; assay type: cell membranes
Chain of Mu-type opioid receptor (P97266 whole entry): as the sequence (P97266 whole entry) above

Sus scrofa = organism: Sus scrofa; assay: Displacement of [3H]-(+)-MK-801 from PCP binding site of NMDA receptor in pig brain cortex membranes up to 1 uM after 120 mins by scintillation counting analysis; assay type: cell membranes
[9] = molecular target: Kappa-type opioid receptor (Cavia porcellus, UniProt P41144); assay: Displacement of [3H]U69,593 from kappa opioid receptor in guinea pig brain membrane after 120 mins by scintillation counting analysis; assay type: cell membranes
Chain of Kappa-type opioid receptor (P41144 whole entry): as the sequence (P41144 whole entry) above

Row | SMILES | Ki [1] [nM] | Ki [2] [nM] | Ratio Ki [3] | Ki [4] [nM] | Ki [5] [nM] | inhibition [6] [%] | inhibition [7] [%] | inhibition [8] [%] | Ki (Mu-type opioid receptor) [nM] | Activity (Sus scrofa) | Ki [9] [nM]
1 | c1ccc(CN[C@H]2CC[C@]3(CC2)OCCc2ccccc23)cc1 | 97 | 503 | 5 to 10 |  |  | 0 | 0 | 20 |  |  | 
2 | CCOC1Cc2ccccc2[C@]2(CC[C@@H](N(C)CC3CCCCC3)CC2)O1 (stereo not given in full) | 15 | 361 | 24 |  | 93 |  | 24 | 13 | 879 |  | 
3 | c1ccc2c(c1)CCO[C@]21CC[C@H](NCC2CCCCC2)CC1 | 15 | 99 | 5 to 10 | 178 | 8 |  |  |  | 114 |  | 236
4 | CCOC1Cc2ccccc2[C@]2(CC[C@@H](NCC3CCCCC3)CC2)O1 (stereo not given in full) | 183 | 161 | 5 to 10 | 185 | 16 |  |  |  | 185 |  | 85
5 | CCOC1Cc2ccccc2[C@]2(CC[C@H](NCC3CCCCC3)CC2)O1 (stereo not given in full) | 36 | 308 | 5 to 10 | 432 | 46 |  |  |  | 495 |  | 745
6 | C1=Cc2ccccc2[C@]2(CC[C@@H](NCC3CCCCC3)CC2)O1 | 12 | 53 | 5 to 10 | 479 | 7 |  |  |  | 258 |  | 604
7 | COC1Cc2ccccc2[C@]2(CC[C@@H](NCC3CCCCC3)CC2)O1 (stereo not given in full) | 19 | 128 | 5 to 10 | 228 |  |  |  |  | 354 | inactive | 96
8 | COC1O[C@]2(CC[C@H](NCC3CCCCC3)CC2)c2ccccc21 (stereo not given in full) | 19 | 133 | 5 to 10 | 114 | 39 |  |  |  | 273 |  | 506
9 | COC1O[C@]2(CC[C@@H](NCc3ccccc3)CC2)c2ccccc21 (stereo not given in full) | 50 | 751 | 5 to 10 | 655 |  |  |  |  | 768 |  | 1140
10 | c1ccc2c(c1)CCO[C@]21CC[C@@H](NCC2CCCCC2)CC1 | 18 | 84 | 5 to 10 |  | 33 |  | 16 | 11 | 841 |  | 
11 | COC1O[C@]2(CC[C@@H](NCC3CCCCC3)CC2)c2ccccc21 (stereo not given in full) | 20 | 52 | 5 to 10 | 143 | 11 |  | 23 |  | 501 |  | 
12 | COC1Cc2ccccc2[C@]2(CC[C@H](NCc3ccccc3)CC2)O1 (stereo not given in full) |  |  |  |  | 227 | 20 | 27 | 41 |  | inactive | 

The remaining molecules from weak to strong by Ki [1], led by results:

Row | Ki [1] [nM] | Ki [2] [nM] | Ratio Ki [3] | Ki [4] [nM] | Ki [5] [nM] | inhibition [6] [%] | inhibition [7] [%] | inhibition [8] [%] | Ki (Mu-type opioid receptor) [nM] | Activity (Sus scrofa) | Ki [9] [nM] | SMILES
13 | 8.2 | 70 | 5 to 10 | 559 | 7.6 | 16 | 0 |  |  |  |  | COC1O[C@]2(CC[C@@H](N(C)CC3CCCCC3)CC2)c2ccccc21 (stereo not given in full)
14 | 8.1 | 42 | 5 to 10 | 356 | 14 |  | 18 |  | 297 |  |  | CCOC1Cc2ccccc2[C@]2(CC[C@H](N(C)CC3CCCCC3)CC2)O1 (stereo not given in full)
15 | 8 | 164 | 21 | 254 | 9.4 |  |  |  | 231 |  | 639 | COC1O[C@]2(CC[C@H](N(C)CC3CCCCC3)CC2)c2ccccc21 (stereo not given in full)
16 | 8 | 175 | 22 | 187 | 12 |  | 23 |  |  |  |  | CN(CC1CCCCC1)[C@H]1CC[C@@]2(CC1)OCCc1ccccc12
17 | 5.8 | 101 | 5 to 10 |  |  |  | 28 | 33 | 462 | inactive |  | COC1Cc2ccccc2[C@]2(CC[C@H](NCC3CCCCC3)CC2)O1 (stereo not given in full)
18 | 5.7 | 67 | 5 to 10 | 209 | 6.7 | 15 | 18 |  |  |  |  | C1=Cc2ccccc2[C@]2(CC[C@H](NCC3CCCCC3)CC2)O1
19 | 4.9 | 81 | 5 to 10 |  | 16 |  |  | 11 | 163 |  |  | CN(CC1CCCCC1)[C@H]1CC[C@@]2(CC1)OC=Cc1ccccc12
20 | 3.1 | 30 | 5 to 10 | 565 | 5.5 | 13 | 10 |  |  |  |  | CN(CC1CCCCC1)[C@H]1CC[C@]2(CC1)OCCc1ccccc12
21 | 2.3 | 33 | 5 to 10 |  | 4.6 |  |  | 38 | 391 |  |  | CN(CC1CCCCC1)[C@H]1CC[C@]2(CC1)OC=Cc1ccccc12
